Reference: patent US5843925A, “Methods for inhibiting angiogenesis, proliferation of endothelial or tumor cells and tumor growth” (American Cyanamid Company, priority 1994, dated 1998)
In brackets after ≈: the same amount, converted by molar mass. Counter-ions that a name gives are not always drawn.

Key:
A2780S = experiment: Antiproliferative activity in human tumor cell lines (A2780S); assay type: cell-based; conditions: A2780S ovarian tumor cell line
Experimental: (§1) PROTOCOLS 1, 2, and 3 are described in greater detail hereinbelow. In general, according to PROTOCOLS 1 and 2, the target ABAE and/or Human Tumor cells are exposed to the compound of Formula I for 48 hours. PROTOCOL 3 exposes ABAE cells to the compounds for 4 days. A detailed description of the protocol is as follows:
(§2) The antiproliferative activity of the compounds of Formula I of the present invention is evaluated in a panel comprised of human tumor cell lines and an adult bovine aortic endothelial cell line (ABAE). The human tumor cell lines are from
(§3) Cultures are renewed after 20 passages with cells from a fresh stock of batch-frozen early passage cells. Cell lines are routinely checked for mycoplasma contamination (Genprobe). In a laminar flow hood, cells (1-5×10^4) are plated into 96-well microtiter plates in a volume of 0.1 ml/well with a bulk microtiter dispenser (Denley). […] Compounds are added using a Tomtec dispenser which simultaneously dispenses from one 96-well plate, containing the drug dilutions, to the plates containing the cells. After two days of continuous drug exposure, 50% cold trichloroacetic acid (TCA) is added to 10% final concentration to fix the cells, and after 60 minutes at 4° C., the TCA is aspirated and the plates are washed 5 times with deionized water using a microtiter plate washer. […] A 0.4% solution of the dye, sulforhodamine B, in […] is added to the plates, and the plates are washed 5 times with 1% glacial acetic acid using the automatic plate washed. The bound stain is solubilized with 0.1 ml of 10 mM Tris base. The optical densities are read from an automatic spectrophotometric plate reader (Dynatech) directly to a main frame computer (VAX 8600).
(§4) Positive controls, that include standard chemotherapeutic drugs (i.e., adriamycin, cisplatin, etc.), are included in every experiment.
(§5) Background optical density measurements (complete media-cells, and complete media+drug-cells) are automatically subtracted from the appropriate control and test wells. Mean values and standard errors are determined from duplicate wells. A measure is also made of the optical density at time when the drugs are added. The number of cells after treatment (P), as % of control, is calculated for every concentration of drug, as follows: [formula] wherein: T is optical density measurement for treated cells after 48 hours;
(§6) C is optical density measurement for untreated cells after 48 hours;
(§7) Co is optical density measurement for cells at the time of drug addition.
(§8) IC50 of growth inhibition is calculated from the sets of P values using the RS-1 data package (BBN Software).
(§9) Antiproliferative Activity in Human Tumor Cell Lines
(§10) The antiproliferative activity of the compounds of Formula I is evaluated in the panel comprised of human tumor cell lines as listed in PROTOCOL 1. This assay is a slight modification of PROTOCOL 1. The modifications include:
(§11) 1) each concentration for each compound is tested in a single well;
(§12) 2) compounds are tested at 20, 4, 0.8, 0.16 microgram/ml and additionally in some experiments at 100 and 0.32 microgram/ml;
(§13) 3) samples are pipetted into a 96-well plate for each of the cell lines by a Beckman Biomek 1000 SL robot;
(§14) 4) after fixing with TCA each well is washed with 0.35 ml distilled water twice, not five times;
(§15) 5) after staining with sulforhodamine B each well is washed 3 times, not five times;
(§16) 6) the growth inhibition (I) as % of control, is calculated using the RS-1 data package (BBN Software), for every concentration of drug, as follows: [formula] wherein: T is optical density measurement for treated cells after 48 hours;
(§17) 7) IC50 of growth inhibition is determined graphically from dose response curves, as is known in the art.

A2780/DDP = experiment: Antiproliferative activity in human tumor cell lines (A2780/DDP); assay type: cell-based; conditions: A2780/DDP ovarian tumor cell line
Experimental: as §1, §2, §3, §4, §5, §6, §7, §8, §9, §10, §11, §12, §13, §14, §15, §16, §17

MIP = experiment: Antiproliferative activity in human tumor cell lines (MIP); assay type: cell-based; conditions: MIP colon tumor cell line
Experimental: as §1, §2
(§18) All cell lines are maintained in log phase in RPMI 1640 media, supplemented with 5% fetal calf serum, penicillin/streptomycin and 2 mM L-glutamine. Cultures are renewed after 20 passages with cells from a fresh stock of batch-frozen early passage cells. Cell lines are routinely checked for mycoplasma contamination (Genprobe). In a laminar flow hood, cells (1-5×10^4) are plated into 96-well microtiter plates in a volume of 0.1 ml/well with a bulk microtiter dispenser (Denley). […] At this concentration, dimethylsulfoxide has no effect on cell growth. Compounds are added using a Tomtec dispenser which simultaneously dispenses from one 96-well plate, containing the drug dilutions, to the plates containing the cells. After two days of continuous drug exposure, 50% cold trichloroacetic acid (TCA) is added to 10% final concentration to fix the cells, and after 60 minutes at 4° C., the TCA is aspirated and the plates are washed 5 times with deionized water using a microtiter plate washer. The number of cells on the plate are quantitated using a protein dye-binding assay (Monks et al., 1991). A 0.4% solution of the dye, sulforhodamine B, in glacial acetic acid is added to the plates, and the plates are washed 5 times with 1% glacial acetic acid using the automatic plate washed. The bound stain is solubilized with 0.1 ml of 10 mM Tris base. The optical densities are read from an automatic spectrophotometric plate reader (Dynatech) directly to a main frame computer (VAX 8600).
as §4, §5, §6, §7, §8, §9, §10, §11, §12, §13, §14, §15
(§19) 6) the growth inhibition (I) as % of control, is calculated using the RS-1 data package (BBN Software), for every concentration of drug, as follows: [formula] wherein: T is optical density measurement for treated cells after 48 hours; […]

HTB 161 = experiment: Antiproliferative activity in human tumor cell lines (HTB 161); assay type: cell-based
Experimental: as §1, §2, §3, §4, §5, §6, §7, §8, §9, §10, §11, §12, §13, §14, §15, §16, §17

SW620 = experiment: Antiproliferative activity in human tumor cell lines (SW620); assay type: cell-based; conditions: SW-620, SW620 colon tumor cell line
Experimental: as §1, §2, §18, §4, §5, §6, §7, §8, §9, §10, §11, §12, §13, §14, §15, §19

Human Tumor cell lines = experiment: Antiproliferative activity in panel of human tumor cell lines (PROTOCOL 1 and PROTOCOL 2); assay type: cell-based; conditions: for IC50: Homo sapiens, average over the tumor cell lines of Table 3
Experimental: (§20) The antiproliferative activity of the compounds of Formula I in an Adult Bovine Aortic Endothelial (ABAE) cell line and in Human Tumor cells lines is evaluated in three similar assays that measure growth inhibition. The assays are identified as follows:
as §1, §2, §18, §4, §5, §6, §7, §8, §9, §10, §11, §12, §13, §14
5) after staining with sulforhodamine B each well is washed 3 times, not five times; […]

CACO2 = experiment: Antiproliferative activity in human tumor cell lines (CACO2); assay type: cell-based; conditions: Caco-2, CACO2 colon tumor cell line
Experimental: as §1, §2, §18, §4, §5, §6, §7, §8, §9, §10, §11, §12, §13, §14, §15, §19

[1] = tested on: Adult Bovine Aortic Endothelial (ABAE) cell line; experiment: Antiproliferative activity in Adult Bovine Aortic Endothelial (ABAE) cell line, PROTOCOL 3; assay type: cell-based; conditions: 4 day assay (Protocol 3)
Experimental: as §20, §1
Antiproliferative Activity in Adult Bovine Aortic Endothelial (ABAE) Cell Line
ABAE cells are grown in DMEM media (Mediatech Washington, D.C.) supplemented with 10% calf serum (Hyclone). ABAE cells are plated in 24-well dishes at 8,000 cells/well, followed by the addition of increasing concentrations of 7-[substituted amino]-9-[(substituted glycyl)amido]-6-demethyl-6-deoxytetra-cyclines. After four days, the cells are detached and counted. […] The growth inhibition (I) as % of control is calculated as follows: [formula] wherein: Nc is the number of cells in untreated wells;
Nt is the number of cells in treated wells;
No is the number of plated cells.
IC50 of growth inhibition is determined from the sets of I values plotted by Kaleidograph software (Abelbeck Software).
Table 2 presents the results depicting the antiproliferative activity of the compounds of Formula I against an adult bovine aortic endothelial cell line (ABAE), as evaluated by PROTOCOL 1 and PROTOCOL 3. The results are presented in terms of IC50 and are as follows.

angiogenesis = conditions: Cancer Research 51, 672-675, Brem et al; cited from earlier work
[2] = highest concentration, human tumor cell lines

Structure (SMILES)	IC50 (A2780S)	IC50 (A2780/DDP)	IC50 (MIP)	IC50 (HTB 161)	IC50 (SW620)	IC50 (Human Tumor cell lines)	IC50 (CACO2)	cell growth at highest concentration (Human Tumor cell lines; [2])	dead floating cells (Human Tumor cell lines; [2])	inhibition of cell growth (Human Tumor cell lines; highest concentrations, 6 human tumor cell lines, FIG. 2)	activity upon incubation with cells [1]	inhibition of angiogenesis vs combination therapy of heparin and cortisone (angiogenesis)
CN(C)c1cc(NC(=O)CN2CCCC2)c(O)c2c1CC1CC3[C@H](N(C)C)C(O)=C(C(N)=O)C(=O)[C@@]3(O)C(O)=C1C2=O (stereo partly drawn) [Example 3, [7S-(7α,10aα)]-N-[9-(Aminocarbonyl)-4,7-bis(dimethylamino)-5,5a,6,6a,7,10,10a,12-octahydro-1,8-10a,11-tetrahydroxy-10,12-dioxo-2-naphthacenyl]-1-pyrrolidineacetamide dihydrochloride]	2.4 µg/mL	2.7 µg/mL	2.45 µg/mL	2.3 µg/mL	2.3 µg/mL	2.4 µg/mL	–	–	–	–	–	–
CCCN(CCC)c1cc(NC(=O)CN(C)C)c(O)c2c1CC1CC3[C@H](N(C)C)C(O)=C(C(N)=O)C(=O)[C@@]3(O)C(O)=C1C2=O (stereo partly drawn) [Example 6, [4S-(4α,12aα)]-4-(Dimethylamino)-9-[[(dimethylamino)acetyl]amino]-7-(dipropylamino)-1,4,4a,5,5a,6,11,12a-octahydro-3,10,12,12a-tetrahydroxy-1,11-dioxo-2-naphthacenecarboxamide sulfate (1:1)]	3.5 µg/mL	3 µg/mL	10 µg/mL	3 µg/mL	3 µg/mL	5.1 µg/mL	8 µg/mL	–	–	–	–	–
CCCCN(CC1CC1)c1cc(NC(=O)CN(C)C)c(O)c2c1CC1CC3C(N(C)C)C(O)=C(C(N)=O)C(=O)C3(O)C(O)=C1C2=O (stereo not drawn) [Example 7, 7-[Butyl(cyclopropylmethyl)amino]-4-(dimethylamino)-9 [[(dimethylamino)acetyl]amino]-1,4,4a,5,5a,6,-11,12a-octahydro-3,10,12,12a-tetrahydroxy-1,11-dioxo-2-naphthacenecarboxamide sulfate (1:2)]	3 µg/mL	3 µg/mL	8 µg/mL	3 µg/mL	3.5 µg/mL	5.1 µg/mL	10 µg/mL	–	–	–	–	–
CC(C)CN(CC(C)C)c1cc(NC(=O)CN(C)C)c(O)c2c1CC1CC3[C@H](N(C)C)C(O)=C(C(N)=O)C(=O)[C@@]3(O)C(O)=C1C2=O (stereo partly drawn) [Example 8, [4S-(4α,12aα)]-7-[Bis(2-methylpropyl)amino]-4-(dimethylamino)9-[[(dimethylamino)acetyl]amino]-1,4,4a,5,5a,6,11,12a-octahydro-3,10,12,12a-tetrahydroxy-1,11-dioxo-2-naphthacenecarboxamide sulfate]	2.5 µg/mL	1.5 µg/mL	10 µg/mL	2.5 µg/mL	1.5 µg/mL	4 µg/mL	6 µg/mL	the cells continue to grow	Dead floating cells were not observed	no 100% inhibition of cell growth	–	–
CN(C)c1ccc(O)c2c1C[C@H]1C[C@H]3[C@H](N(C)C)C(O)=C(C(N)=O)C(=O)[C@@]3(O)C(O)=C1C2=O [Minocycline, reference compound]	–	–	–	–	–	–	9 µg/mL (≈ 19.7 µM)	–	–	–	losing its activity upon incubation with cells	inhibits angiogenesis to an extent comparable to that of the combination therapy of heparin and cortisone
